Experimental data as given in patent publication US7122662B2, “Tricyclic compound having spiro union” (Mochida Pharmaceutical Co., Ltd., priority 1999, dated 2006).

molecular target: T1, human FXa (Homo sapiens, UniProt P00742); test: Measurement of human FXa inhibitory action; assay type: biochemical; conditions: bioassay procedure of Experimental Example 1, a); reference compounds
T1 construct: purchased Enzyme Research Laboratories, Inc
Protocol: In vitro FXa inhibitory activity is measured in accordance with the method of Kettner et al. (Journal of Biological Chemistry, vol. 265, pages 18289 to 18297, 1990). To be more specific, human FXa (product of Enzyme Research Laboratories, Inc., 0.019 U/ml) is mixed with a test compound diluted with dimethylsulfoxide (DMSO) at various concentrations and a synthetic substrate S-2222 (Chromogenix AB, 0.4 mM). The mixtures are incubated at 37° C. in Tris-hydrochloric acid buffer (pH 7.5) while the absorbance at 405 nm is measured continuously. To calculate the FXa inhibitory activity of the test compound, the initial reaction velocity is compared with the value for a control containing no test compound. It should be noted that the FXa inhibitory activity of the test compound is generally indicated as IC50.

T1 sequence (P00742 235-488 limits assumed): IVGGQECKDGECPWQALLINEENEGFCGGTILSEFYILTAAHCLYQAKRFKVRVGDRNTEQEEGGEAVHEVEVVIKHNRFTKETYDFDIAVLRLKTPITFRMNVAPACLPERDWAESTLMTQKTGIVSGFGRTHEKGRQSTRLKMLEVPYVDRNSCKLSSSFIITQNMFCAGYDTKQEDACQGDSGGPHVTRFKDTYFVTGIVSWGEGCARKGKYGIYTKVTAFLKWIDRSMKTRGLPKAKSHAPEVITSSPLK
T1 sequence (P00742 41-179 partner limits assumed): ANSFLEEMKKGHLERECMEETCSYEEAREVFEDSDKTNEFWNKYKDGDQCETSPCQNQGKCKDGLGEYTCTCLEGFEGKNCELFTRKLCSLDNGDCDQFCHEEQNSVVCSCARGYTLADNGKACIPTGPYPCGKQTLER

Question: How did the IC50 turn out when `O=C(C(CNS(=O)(=O)c1ccc2cc(Cl)ccc2c1)NCC1CCN(c2ccncc2)CC1)N1CCS(=O)(=O)CC1` (stereo not drawn) [Compound B, 4-[3-(6-chloronaphthalen-2-ylsulfoneamide)-2-[l-(4-pyridyl)piperidin-4-ylmethyl]aminopropionyl]-1,1-dioxothiomorpholine] was run?
Answer: 31 µM

Question: `CCOC(=O)[C@H]1CN(S(=O)(=O)c2ccc3cc(Cl)ccc3c2)CC(=O)N1CC1CCN(c2ccncc2)CC1` [Compound C, (R)-4-(6-chloronaphthalen-2-ylsulfonyl)-6-ethoxycarbonyl-l-[1-(4-pyridyl)piperidin-4-ylmethyl]piperazin-2-one] was tested. Which IC50 did it give?
Answer: 28 µM

test system: human plasma; test: Measurement of intrinsic coagulation time (APTT) in vitro; assay type: biochemical; conditions: not given
Protocol: Activated partial thromboplastin time (APTT) is measured in the presence of the test compounds diluted at various concentrations. A test compound diluted with DMSO at various concentrations is mixed with human plasma and APTT reagent. The mixture is incubated at 37° C. for 2 minutes; calcium chloride (25 mM) is added to the mixture; and the coagulation time is thereafter measured. It should be noted that the anticoagulant activity of the test compound is described in terms of the concentration required to double the coagulation time for the case where no test compound is added.

Question: Which “Concentration required to double coagulation time” value (from here on “Concentration required”) does the source give for `COCC12CN(S(=O)(=O)C=Cc3ccc(Cl)s3)CC(=O)N1CC1(CCN(c3ccncc3)CC1)N2C` (stereo not drawn) [Example 740, 1,4,7-triaza-4-[2-(5-chlorothiophen-2-yl)ethenesulfonyl]-6-(methoxymethyl)-7-methyl-1′-(4-pyridyl)spiro[bicyclo[4.3.0]nonane-8,4′-piperidin]-2-one] here?
Answer: 0.18 µM

Question: How did the “Concentration required” value turn out when `COCC12CN(S(=O)(=O)c3ccc4ccccc4c3)CC(=O)N1CC1(CCN(c3ccncc3)CC1)O2` (stereo not drawn) [Example 6, 1,4-diaza-6-(methoxymethyl)-4-(2-naphthalenesulfonyl)-7-oxa-1′-(4-pyridyl)spiro[bicyclo[4.3.0]nonane-8,4′-piperidin]-2-one] was run?
Answer: 0.99 µM

Question: Which “Concentration required” value does the source give for `COCC12CN(S(=O)(=O)c3cc4cc(Cl)ccc4o3)CC(=O)N1CC1(CCN(c3ccncc3)CC1)N2C` (stereo not drawn) [Example 533, 1,4,7-triaza-4-(5-chlorobenzo[b]furan-2-ylsulfonyl)-6-(methoxymethyl)-7-methyl-1′-(4-pyridyl)spiro[bicyclo[4.3.0]nonane-8,4′-piperidin]-2-one] here?
Answer: 0.35 µM

Question: Which “Concentration required” value does the source give for `COCC12CN(S(=O)(=O)c3ccc4cc(Cl)ccc4c3)CC(=O)N1CC1(CCN(c3cc[n+](C)cc3)CC1)O2.Cc1ccc(S(=O)(=O)[O-])cc1` (stereo not drawn) [Example 23, 4-[1,4-diaza-4-(6-chloronaphthalen-2-ylsulfonyl)-6-(methoxymethyl)-7-oxa-2-oxospiro[bicyclo[4.3.0]nonane-8,4′-piperidin-1′-yl]]-1-methylpyridinium p-toluenesulfonate] here?
Answer: 0.62 µM

Question: For `COCC12CN(S(=O)(=O)C3=Cc4ccc(Cl)cc4OC3)CC(=O)N1CC1(CCN(c3ccncc3)CC1)O2` (stereo not drawn) [Example 388, 1,4-diaza-4-(7-chloro-2H-benzopyran-3-sulfonyl)-6-(methoxymethyl)-7-oxa-1′-(4-pyridyl)spiro[bicyclo[4.3.0]nonane-8,4′-piperidin]-2-one], which “Concentration required” value is on record?
Answer: 0.22 µM

Question: Which “Concentration required” value does the source give for `CC12CN(S(=O)(=O)c3ccc4cc(Cl)ccc4c3)CC(=O)N1CC1(CCN(c3ccncc3)CC1)O2` (stereo not drawn) [Example 69, 1,4-diaza-4-(6-chloronaphthalen-2-ylsulfonyl)-6-methyl-7-oxa-1′-(4-pyridyl)spiro[bicyclo[4.3.0]nonane-8,4′-piperidin]-2-one] here?
Answer: 0.36 µM

Question: For `COCC12CN(S(=O)(=O)c3cc4cc(Cl)ccc4o3)CC(=O)N1CC1(CCN(c3ccncc3)CC1)N2` (stereo not drawn) [Example 471, 1,4,7-triaza-4-(5-chlorobenzo[b]furan-2-ylsulfonyl)-6-(methoxymethyl)-1′-(4-pyridyl)spiro[bicyclo[4.3.0]nonane-8,4′-piperidin]-2-one], which “Concentration required” value is on record?
Answer: 0.27 µM

Question: `O=C1CN(S(=O)(=O)c2cc3ccc(Cl)cc3s2)CC2NC3(CCN(c4ccncc4)CC3)CN12` (stereo not drawn) [Example 275, 1,4,7-triaza-4-(6-chlorobenzo[b]thiophen-2-ylsulfonyl)-1′-(4-pyridyl)spiro[bicyclo[4.3.0]nonane-8,4′-piperidin]-2-one] was tested. Which “Concentration required” value did it give?
Answer: 0.17 µM

Question: For `COCC12CN(S(=O)(=O)c3cc4ccc(Cl)cc4s3)CC(=O)N1CC1(CCN(c3ccncc3)CC1)O2` (stereo not drawn) [Example 399, 1,4-diaza-4-(6-chlorobenzo[b]thiophen-2-ylsulfonyl)-6-(methoxymethyl)-7-oxa-1′-(4-pyridyl)spiro[bicyclo[4.3.0]nonane-8,4′-piperidin]-2-one], which “Concentration required” value is on record?
Answer: 0.18 µM

Question: `O=C1CN(S(=O)(=O)C=Cc2ccc(Cl)s2)CC2OC3(CCN(c4ccncc4)CC3)CN12` (stereo not drawn) [Example 600, 1,4-diaza-4-[2-(5-chlorothiophen-2-yl)ethenesulfonyl]-7-oxa-1′-(4-pyridyl)spiro[bicyclo[4.3.0]nonane-8,4′-piperidin]-2-one] was tested. Which “Concentration required” value did it give?
Answer: 0.22 µM

Question: With `CC(C)OC(=O)C12CN(S(=O)(=O)c3ccc4cc(Cl)ccc4c3)CC(=O)N1CC1(CCN(c3ccncc3)CC1)O2` (stereo not drawn) [Example 29, 1,4-diaza-4-(6-chloronaphthalen-2-ylsulfonyl)-6-(isopropoxycarbonyl)-7-oxa-1′-(4-pyridyl)spiro[bicyclo[4.3.0]nonane-8,4′-piperidin]-2-one] as the compound, how does the “Concentration required” value read?
Answer: 0.90 µM

Question: With `O=C1CN(S(=O)(=O)c2ccc3cc(Cl)ccc3c2)CC2OC3(CCN(c4ccncc4)CC3)CN12` (stereo not drawn) [Example 9, 1,4-diaza-4-(6-chloronaphthalen-2-ylsulfonyl)-7-oxa-1′-(4-pyridyl)spiro[bicyclo[4.3.0]nonane-8,4′-piperidin]-2-one] as the compound, how does the “Concentration required” value read?
Answer: 0.29 µM

Question: For `COCCOC(=O)C12CN(S(=O)(=O)c3ccc4cc(Cl)ccc4c3)CC(=O)N1CC1(CCN(c3ccncc3)CC1)O2` (single isomer, unassigned; (-)) [Example 42, (−)-1,4-diaza-4-(6-chloronaphthalen-2-ylsulfonyl)-6-(2-methoxyethoxycarbonyl)-7-oxa-1′-(4-pyridyl)spiro[bicyclo[4.3.0]nonane-8,4′-piperidin]-2-one], which “Concentration required” value is on record?
Answer: 0.20 µM

Question: `O=C(O)COCC12CN(S(=O)(=O)c3ccc4cc(Cl)ccc4c3)CC(=O)N1CC1(CCN(c3ccncc3)CC1)O2` (stereo not drawn) [Example 5, 1,4-diaza-4-(6-chloronaphthalen-2-ylsulfonyl)-6-(carboxymethoxymethyl)-7-oxa-1′-(4-pyridyl)spiro[bicyclo[4.3.0]nonane-8,4′-piperidin]-2-one] was tested. Which “Concentration required” value did it give?
Answer: 0.43 µM

Question: How did the “Concentration required” value turn out when `COCC12CN(S(=O)(=O)c3cc4ccc(Cl)cc4s3)CC(=O)N1CC1(CCN(c3ccncc3)CC1)N2` (stereo not drawn) [Example 461, 1,4,7-triaza-4-(6-chlorobenzo[b]thiophen-2-ylsulfonyl)-6-(methoxymethyl)-1′-(4-pyridyl)spiro[bicyclo[4.3.0]nonane-8,4′-piperidin]-2-one] was run?
Answer: 0.16 µM

Question: For `NCC12CN(S(=O)(=O)c3ccc4cc(Cl)ccc4c3)CC(=O)N1CC1(CCN(c3ccncc3)CC1)O2` (stereo not drawn) [Example 58, 6-(aminomethyl)-1,4-diaza-4-(6-chloronaphthalen-2-ylsulfonyl)-7-oxa-1′-(4-pyridyl)spiro[bicyclo[4.3.0]nonane-8,4′-piperidin]-2-one], which “Concentration required” value is on record?
Answer: 0.18 µM
